In patent US11312763B2, “Anti-N3pGlu amyloid beta peptide antibodies and uses thereof” (Eli Lilly and Company, priority 2016, dated 2022):

System: deposited Aβ
Test: Prior 4-month study of BACE inhibitor in feed in aged PDAPP mice
Format: in vivo

Structure (SMILES): C[C@@]1(c2cc(-c3cncnc3)c(F)cc2F)CCSC(N)=N1 [LY2811376]
- change in the deposited Aβ over the 4-month interval: no change in the deposited Aβ
